Assay results reported in patent US6914045B2, “Glycopeptide antibiotics” (Wyeth Holdings Corporation, priority 2001, dated 2005).

Legend:
[1] = test system: Streptococcus sp.; test: in vitro antibacterial evaluation, MIC by broth dilution; type: cell-based; details: broth dilution, 18 hours at 35° C.
How it was run: (§1)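 Step 1: dilute antibiotic across 64-0.06 μg/mL in Muller-Hinton II […]. Step 2: inoculate at 5×10^5 CFU/mL.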

[2] = test system: Enterococcus sp.; test: as above; type: cell-based; details: broth dilution, 18 hours at 35° C.
How it was run: as §1

[3] = test system: Staphylococcus sp.; test: as above; type: cell-based; details: broth dilution, 18 hours at 35° C.
How it was run: as §1

[4] = test system: Staphylococcus aureus-SMITH (GC 4543); test: acute lethal infection in mice; type: in vivo; details: acute lethal infection, female CD-1 mice, intraperitoneal challenge, intravenous 30 min. after infection, 7 day survival
How it was run: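 ED50 from 7 day survival ratios pooled over 3 separate tests. Female CD-1 mice, 20+/−2 gm, ip bacterial challenge (trypticase soy broth or hog gastric mucin) lethal to untreated controls in 24-48 hr; iv dosing 30 min after infection in saline or 5% dextrose, n=5/dose.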

[5] = test system: Escherichia coli; test: in vitro antibacterial evaluation, MIC by broth dilution; type: cell-based; details: 18 hours at 35° C.

CC(c1ccccc1)C1NC(=O)CNC(=O)C(CO)NC(=O)C(C(O)C2CNC(=N)N2C2OC(CO)C(O)C(O)C2O)NC(=O)C(C(O)C2CNC(=N)N2)NC(=O)C(Cc2ccc(OC3OC(CO)C(OC4OC(CO)C(OCc5ccc(OCc6ccccc6)cc5)C(O)C4O)C(O)C3O)cc2)NC1=O (stereo not drawn) [Example 231a, Cyclo[glycyl-β-methylphenylalanyl-O-[4-O-[4-O-[4-(phenylmethoxy)benzyl]hexopyranosyl]-hexopyranosyl]tyrosyl-3-(2-iminoimidazolidin-4-yl)seryl-3-(3-hexopyranosyl-2-iminoimidazolidin-4-yl)serylseryl]]
32 to 64 µg/mL: MIC Escherichia coli (ATCC 25922) [5]
0.5 µg/mL: MIC Coagulase Negative Staphylococcus (GC 4551) [3] | MIC Coagulase Negative Staphylococcus (GC 6257) [3] | MIC Coagulase Negative Staphylococcus (GC 4551) ([3]; strain GC 4551) | MIC Coagulase Negative Staphylococcus (GC 6257) ([3]; strain GC 6257)
<0.06 µg/mL: MIC Streptococcus agalactiae (GC 4564) [1] | MIC Streptococcus pneumoniae (ATCC 6301) [1] | MIC Streptococcus pneumoniae (GC 1894) [1] | MIC Streptococcus pneumoniae (GC 4565) [1] | MIC Streptococcus pyogenes (GC 4563) [1] | MIC Streptococcus pneumoniae (ATCC 6301) ([1]; inoculum 5×10^5 CFU/mL, strain ATCC 6301) | MIC Streptococcus pneumoniae (GC 1894) ([1]; inoculum 5×10^5 CFU/mL, strain GC 1894) | MIC Streptococcus pyogenes (GC 4563) ([1]; inoculum 5×10^5 CFU/mL, strain GC 4563) | MIC Streptococcus agalactiae (GC 4564) ([1]; inoculum 5×10^5 CFU/mL, strain GC 4564) | MIC Streptococcus pneumoniae (GC 4565) ([1]; inoculum 5×10^5 CFU/mL, strain GC 4565)
1 µg/mL: MIC Coagulase Negative Staphylococcus (GC 4547) [3] | MIC Staphylococcus aureus (GC 3051) [3] | MIC Staphylococcus aureus-SMITH (GC 4543) [3] | MIC Staphylococcus haemolyticus (GC 4546) [3] | MIC Staphylococcus aureus (GC 3051) ([3]; strain GC 3051) | MIC Staphylococcus aureus-SMITH (GC 4543) ([3]; strain GC 4543) | MIC Staphylococcus haemolyticus (GC 4546) ([3]; strain GC 4546) | MIC Coagulase Negative Staphylococcus (GC 4547) ([3]; strain GC 4547)
2 to 4 µg/mL: MIC Enterococcus faecalis (GC 2242) [2] | MIC Enterococcus faecium (GC 4556) [2] | MIC Enterococcus faecalis (GC 2242) ([2]; inoculum 5×10^5 CFU/mL, strain GC 2242) | MIC Enterococcus faecium (GC 4556) ([2]; inoculum 5×10^5 CFU/mL, strain GC 4556) | MIC Staphylococcus aureus (GC 4544) [3] | MIC Staphylococcus aureus (GC 4544) ([3]; strain GC 4544)
>0.12 to 0.25 µg/mL: MIC Coagulase Negative Staphylococcus (GC 4549) [3]
0.06 mg/kg: median effective dose (ED50), Staphylococcus aureus-SMITH (GC 4543) [4]
1 to 2 µg/mL: MIC Enterococcus faecalis (GC 3059) [2] | MIC Enterococcus faecalis (GC 6189) [2] | MIC Enterococcus faecalis (GC 3059) ([2]; inoculum 5×10^5 CFU/mL, strain GC 3059) | MIC Enterococcus faecalis (GC 6189) ([2]; inoculum 5×10^5 CFU/mL, strain GC 6189) | MIC Staphylococcus aureus (ATCC 29213) [3] | MIC Staphylococcus aureus (GC 1131) [3] | MIC Staphylococcus aureus (GC 3053) [3] | MIC Staphylococcus aureus (GC 4541) [3] | MIC Staphylococcus aureus (GC 4545) [3] | MIC Staphylococcus aureus (ATCC 29213) ([3]; strain ATCC 29213) | MIC Staphylococcus aureus (GC 1131) ([3]; strain GC 1131) | MIC Staphylococcus aureus (GC 3053) ([3]; strain GC 3053) | MIC Staphylococcus aureus (GC 4541) ([3]; strain GC 4541) | MIC Staphylococcus aureus (GC 4545) ([3]; strain GC 4545)
4 µg/mL: MIC Enterococcus faecalis (GC 4552) [2] | MIC Enterococcus faecalis (GC 4553) [2] | MIC Enterococcus faecalis (GC 4554) [2] | MIC Enterococcus faecalis (GC 4552) ([2]; inoculum 5×10^5 CFU/mL, strain GC 4552) | MIC Enterococcus faecalis (GC 4553) ([2]; inoculum 5×10^5 CFU/mL, strain GC 4553) | MIC Enterococcus faecalis (GC 4554) ([2]; inoculum 5×10^5 CFU/mL, strain GC 4554)
<0.12 to 0.25 µg/mL: MIC Coagulase Negative Staphylococcus (GC 4549) ([3]; strain GC 4549)
0.5 to 2 µg/mL: MIC Escherichia coli (GC 4560) [5]
2 µg/mL: MIC Enterococcus avium (GC 4558) [2] | MIC Enterococcus faecalis (ATCC 29212) [2] | MIC Enterococcus faecalis (GC 2691) [2] | MIC Enterococcus faecium (GC 2243) [2] | MIC Enterococcus faecium (GC 4557) [2] | MIC Enterococcus faecalis (ATCC 29212) ([2]; inoculum 5×10^5 CFU/mL, strain ATCC 29212) | MIC Enterococcus faecium (GC 2243) ([2]; inoculum 5×10^5 CFU/mL, strain GC 2243) | MIC Enterococcus faecalis (GC 2691) ([2]; inoculum 5×10^5 CFU/mL, strain GC 2691) | MIC Enterococcus faecium (GC 4557) ([2]; inoculum 5×10^5 CFU/mL, strain GC 4557) | MIC Enterococcus avium (GC 4558) ([2]; inoculum 5×10^5 CFU/mL, strain GC 4558)
32 µg/mL: MIC Escherichia coli (GC 4559) [5]
0.12 to 0.25 µg/mL: MIC Coagulase Negative Staphylococcus (GC 4548) [3] | MIC Coagulase Negative Staphylococcus (GC 4548) ([3]; strain GC 4548)
0.5 to 1 µg/mL: MIC Staphylococcus aureus (GC 4542) [3] | MIC Staphylococcus aureus (GC 4542) ([3]; strain GC 4542)
